Earlier results as cited in patent US20030162237A1, “Methods of monitoring enzyme activity” (priority 2000, published 2003).
Where two headings read alike, the source gives them in different places.

Legend:
stem-loop IIB RNA = conditions: phosphorylated by PKC or HMK, versus unphosphorylated H6Rev

| Compound | binds more tightly to stem-loop IIB RNA than unphosphorylated H6Rev (stem-loop IIB RNA) | binds more tightly to stem-loop IIB RNA than unphosphorylated H6Rev (stem-loop IIB RNA; listed as H6Rev) | expression of malignancy suppressor genes (human tumor cell lines) |
| --- | --- | --- | --- |
| P-H6Rev: HIV type-1 Rev protein H6Rev (accession number P04325) phosphorylated by PKC or HMK | ligand 7-fold more tightly than H6Rev. | 7 fold |  |
| Nc1ncn([C@H]2C[C@H](O)[C@@H](CO)O2)c(=O)n1 [5-aza-2′-deoxycytidine] |  |  | reactivate the expression of many of the malignancy suppressor genes |
